Here are results for 6 molecules from US7723527B2 (Janssen Pharmaceutica NV, priority 2003, dated 2010).

Usually IC50 stands for the concentration at which inhibition is half-maximal. By Ki is commonly meant the dissociation constant of the complex between target and ligand, obtained from inhibition or displacement.

Assay [1] has as its system human eosinophils. The experiment in a line: Inhibition of histamine-induced eosinophil shape change (gated autofluorescence forward scatter assay). Particulars: for effect on histamine-induced eosinophil shape change: human eosinophils, result in words.
The target of assay [2] is T1, human histamine H4 receptor (Homo sapiens, UniProt Q9H3N8).
T1 construct: expressed in transfected cells; host or cells: SK-N-MC cells or COS7 cells, transiently transfected; cell membranes used
T1 sequence (Q9H3N8 whole entry): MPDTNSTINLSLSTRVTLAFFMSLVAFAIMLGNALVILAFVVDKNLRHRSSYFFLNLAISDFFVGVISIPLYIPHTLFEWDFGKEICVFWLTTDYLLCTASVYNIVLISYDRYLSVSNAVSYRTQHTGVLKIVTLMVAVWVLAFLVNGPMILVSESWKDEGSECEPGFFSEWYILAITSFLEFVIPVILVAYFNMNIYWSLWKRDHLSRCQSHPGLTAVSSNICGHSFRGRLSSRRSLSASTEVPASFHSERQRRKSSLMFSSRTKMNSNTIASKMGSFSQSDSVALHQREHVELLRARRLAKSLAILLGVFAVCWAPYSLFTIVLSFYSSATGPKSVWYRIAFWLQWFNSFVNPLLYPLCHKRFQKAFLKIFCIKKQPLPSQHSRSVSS
The experiment in a line: Binding assay on recombinant human histamine H4 receptor (3H-histamine displacement). Particulars: competition binding with 3H-histamine; membranes of SK-N-MC or COS7 cells expressing human H4 receptor; Cheng-Prusoff, KD 5 nM, ligand 5 nM. The gist of the method: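 Membranes from SK-N-MC or COS7 cells transiently transfected with human H4R, incubated with ^3H-histamine (5-70 nM) at room temperature for 45 min, nonspecific binding with 10,000 nM histamine. Filtration and scintillation counting; compound affinity from displacement of ^3H-ligand across varying concentrations.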

The mark [3] stands for this setting: histamine 0.01 μM, HR antagonist 10 μM or none.
[4] abbreviates: histamine 0.1 μM, HR antagonist 10 μM or none.
The mark [5] stands for this setting: histamine 1 μM, HR antagonist 10 μM or none.
[6] abbreviates: histamine 10 μM, HR antagonist 10 μM or none.
The mark [7] stands for this setting: histamine 0 μM, HR antagonist 10 μM.

As for `CN1CCN(C(=O)c2cc3cc(Cl)ccc3[nH]2)CC1` [(5-chloro-1H-indol-2-yl)-(4-methyl-piperazin-1-yl)-methanone], the IC50 in assay [1] (Homo sapiens, Eosinophil, read-out: IC50, inhibition of histamine-induced eosinophil shape change) was 270 nM.
`Cc1c(F)ccc2[nH]c(-c3ccc(OCCCC4CCN(C)CC4)cc3CO)nc12` [Example 176, {2-(5-Fluoro-4-methyl-1H-benzoimidazol-2-yl)-5-[3-(1-methyl-piperidin-4-yl)-propoxy]-phenyl}-methanol]: in assay [2], the Ki was 4 nM.
Regarding `Cc1cc(C)c2nc(-c3cc(OCCCCC4CCN(C)CC4)ncc3CO)[nH]c2c1` [Example 177, {4-(4,6-Dimethyl-1H-benzoimidazol-2-yl)-6-[4-(1-methyl-piperidin-4-yl)-butoxy]-pyridin-3-yl}-methanol], the inhibitory constant (Ki) in assay [2] was found to be 4 nM.
Take `NCCc1c[nH]cn1` [Histamine, histamine]: the “Fold Change (eosinophil shape change)” value in assay [1] (setting [3]) came to 1.01; in assay [1] (setting [4]), 1.21; in assay [1] (setting [5]), 1.31; in assay [1] (setting [6]), 1.34.
In the case of `CN(C)CCOC(c1ccccc1)c1ccccc1` [diphenhydramine], the “Fold Change (eosinophil shape change)” value in assay [1] (setting [7]) is reported as 1.00; in assay [1] (setting [3]), 1.03; in assay [1] (setting [4]), 1.18; in assay [1] (setting [5]) it was 1.50; in assay [1] (setting [6]), 1.63. The “effect on histamine-induced eosinophil shape change” value in assay [1] is recorded as “did not alter the histamine-induced shape change”.
`CNC(=C[N+](=O)[O-])NCCSCc1ccc(CN(C)C)o1` [ranatidine]: the “Fold Change (eosinophil shape change)” value stood at 1.00 in assay [1] (setting [7]); 1.04 in assay [1] (setting [3]); 1.21 in assay [1] (setting [4]); 1.49 in assay [1] (setting [5]); 1.64 in assay [1] (setting [6]). Besides, in assay [1], the “effect on histamine-induced eosinophil shape change” value is “did not alter the histamine-induced shape change”.
